Laboratory results reported in patent publication US11472769B2, “SSAO inhibitors and use thereof” (Eccogene (Shanghai) Co., Ltd., priority 2019, dated 2022).

How the values were obtained:
Assay type in all cases: biochemical
[1] = biological target: recombinant hMAO-A (Homo sapiens (Human), UniProt P21397); assay: MAO-A activity assay (MAO-Glo assay kit); conditions: 40 μM substrate, 30 mins pre-incubation
Experimental: (§1) The biological activities of the compounds of the present application can be assessed with methods and assays known in the art. For example, the potency of the compounds of the present application can be evaluated with an SSAO Activity Assay. Briefly, compounds of the present application can be applied to recombinant hSSAO, hMAO-A, and hMAO-B isoforms and the amine oxidase activity of the enzymes are measured after the addition and subsequent oxidation of the luminogenic substrate (e.g., with the MAO-Glo assay kit from Promega). The IC50 can be calculated, for example, by fitting the dose response curve using a 4-parameter non-linear regression routine.
(§2) Amine oxidase activity of recombinant hSSAO, hMAO-A, and hMAO-B isoforms are measured using the MAO-Glo assay kit (Promega, V1402). Ten nL test compounds (with DMSO as vehicle, 0.1% v/v for hSSAO, hMAO-A and hMAO-B) were added into assay plates by Echo, and pre-incubated with 5 μL of enzyme for 30 mins at room temperature before the addition of 5 μL of luminogenic substrate. The substrate concentration is 40 μM for human recombinant SSAO, 40 μM for human recombinant MAO-A, and 4 μM for human recombinant MAO-B. The hSSAO and hMAO-A assays were conducted in the MAO-A reaction buffer in the kit, and the MAO-B assay was conducted in the MAO-B reaction buffer. Oxidation of the substrate was conducted for 1 hr, before the addition of detecting reagent according the manufacture's protocol. The IC50 value of the tested compounds was calculated by fitting the dose response curve using a 4-parameter non-linear regression routine.

[2] = biological target: recombinant hSSAO (Homo sapiens (Human), UniProt Q16853); assay: SSAO Activity Assay (MAO-Glo assay kit); conditions: 40 μM substrate, 30 mins pre-incubation
Sequence of recombinant hSSAO (Q16853 whole entry): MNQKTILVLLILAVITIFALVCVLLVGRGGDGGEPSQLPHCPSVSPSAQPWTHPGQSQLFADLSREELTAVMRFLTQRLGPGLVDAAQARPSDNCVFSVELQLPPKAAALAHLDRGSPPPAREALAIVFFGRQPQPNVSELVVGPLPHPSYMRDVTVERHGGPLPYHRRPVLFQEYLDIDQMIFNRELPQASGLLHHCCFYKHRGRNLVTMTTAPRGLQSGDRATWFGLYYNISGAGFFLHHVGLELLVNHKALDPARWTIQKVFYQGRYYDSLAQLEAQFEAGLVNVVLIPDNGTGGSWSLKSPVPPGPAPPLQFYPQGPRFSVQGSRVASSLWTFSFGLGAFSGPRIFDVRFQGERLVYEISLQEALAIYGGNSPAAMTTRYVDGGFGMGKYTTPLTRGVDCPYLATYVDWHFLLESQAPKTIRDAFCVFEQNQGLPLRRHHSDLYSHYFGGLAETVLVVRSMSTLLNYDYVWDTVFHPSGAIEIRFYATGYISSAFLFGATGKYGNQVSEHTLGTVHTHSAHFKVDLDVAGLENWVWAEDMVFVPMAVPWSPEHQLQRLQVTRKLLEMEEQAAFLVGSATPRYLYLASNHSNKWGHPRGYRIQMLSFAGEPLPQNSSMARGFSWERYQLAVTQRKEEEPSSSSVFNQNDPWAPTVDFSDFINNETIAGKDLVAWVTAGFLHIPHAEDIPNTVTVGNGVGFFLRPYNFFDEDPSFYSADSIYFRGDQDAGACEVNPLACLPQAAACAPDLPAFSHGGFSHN
Experimental: as §1, §2

[3] = biological target: recombinant hMAO-B (Homo sapiens (Human), UniProt P27338); assay: MAO-B activity assay (MAO-Glo assay kit); conditions: 4 μM substrate, 30 mins pre-incubation
Sequence of recombinant hMAO-B (P27338 whole entry): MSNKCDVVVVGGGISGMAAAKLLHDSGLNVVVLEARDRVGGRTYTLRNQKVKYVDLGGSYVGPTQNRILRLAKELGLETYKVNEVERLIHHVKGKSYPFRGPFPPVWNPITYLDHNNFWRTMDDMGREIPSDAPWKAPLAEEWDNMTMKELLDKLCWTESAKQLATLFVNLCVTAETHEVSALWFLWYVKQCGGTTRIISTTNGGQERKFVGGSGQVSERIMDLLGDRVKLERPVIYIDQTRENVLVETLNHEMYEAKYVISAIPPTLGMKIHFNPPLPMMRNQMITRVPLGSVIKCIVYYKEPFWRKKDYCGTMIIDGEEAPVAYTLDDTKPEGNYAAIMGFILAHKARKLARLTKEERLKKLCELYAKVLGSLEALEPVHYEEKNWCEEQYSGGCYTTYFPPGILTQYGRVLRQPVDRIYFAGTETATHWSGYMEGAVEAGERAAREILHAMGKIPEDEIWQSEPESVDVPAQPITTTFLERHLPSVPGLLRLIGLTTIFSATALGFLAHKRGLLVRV
Experimental: as §1, §2

Sequence of recombinant hMAO-A (P21397 whole entry, canonical isoform): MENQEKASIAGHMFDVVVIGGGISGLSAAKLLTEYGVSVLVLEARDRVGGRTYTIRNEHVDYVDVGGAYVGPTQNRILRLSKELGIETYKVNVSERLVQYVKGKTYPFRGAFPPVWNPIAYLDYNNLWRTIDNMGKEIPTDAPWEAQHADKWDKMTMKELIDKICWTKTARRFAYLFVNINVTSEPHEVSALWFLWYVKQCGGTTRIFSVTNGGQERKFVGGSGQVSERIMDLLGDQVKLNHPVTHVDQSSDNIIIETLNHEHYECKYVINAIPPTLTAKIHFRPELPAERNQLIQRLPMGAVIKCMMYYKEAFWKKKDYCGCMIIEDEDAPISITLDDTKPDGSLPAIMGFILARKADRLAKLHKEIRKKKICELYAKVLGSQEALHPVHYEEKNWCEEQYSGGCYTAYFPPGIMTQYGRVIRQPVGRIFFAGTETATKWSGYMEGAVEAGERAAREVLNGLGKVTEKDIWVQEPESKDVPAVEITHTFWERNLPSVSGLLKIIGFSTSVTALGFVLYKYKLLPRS

SMILES | IC50 [1] | IC50 [2] | IC50 [3]
CCN(CC)C(=O)C12CCC(CS(=O)(=O)c3ccc(OC/C(=C/F)CN)cc3)(CC1)CC2 [Compound 74, (E)-4-(((4-((2-(aminomethyl)-3-fluoroallyl)oxy)phenyl)sulfonyl)methyl)-N,N-diethylbicyclo[2.2.2] octane-1-carboxamide] | > 30 µM | 0.02 to 0.1 µM | > 30 µM
NC/C(=C\F)COc1ccc(S(=O)(=O)CC2CCN(C(=O)C34CC5CC(CC(C5)C3)C4)CC2)cc1 [Compound 43, (E)-adamantan-1-yl(4-(((4-((2-(aminomethyl)-3-fluoroallyl)oxy)phenyl)sulfonyl)methyl)piperidin-1-yl)methanone] | 10 to 30 µM | 0.1 to 0.5 µM | 10 to 30 µM
NC/C(=C\F)COc1ccc(S(=O)(=O)CN2C(=O)CCc3ccccc32)cc1 [Compound 119, (E)-1-(((4-((2-(aminomethyl)-3-fluoroallyl)oxy)phenyl)sulfonyl)methyl)-3,4-dihydroquinolin-2(1H)-one] | 10 to 30 µM | 0.02 to 0.1 µM | > 30 µM
NC/C(=C\F)COc1ccc(S(=O)(=O)CC2CCN(C(=O)C3CCCC3)CC2)c(F)c1 [Compound 58] | > 30 µM | 0.1 to 0.5 µM | > 30 µM
CC1(CS(=O)(=O)c2ccc(OC/C(=C/F)CN)cc2)CCN(C(=O)C2(C)CCC2)CC1 [Compound 56, (E)-(4-(((4-((2-(aminomethyl)-3-fluoroallyl)oxy)phenyl)sulfonyl)methyl)-4-methylpiperidin-1-yl)(1-methylcyclobutyl)methanone] | > 30 µM | 0.02 to 0.1 µM | 10 to 30 µM
NC/C(=C\F)COc1ccc(S(=O)(=O)CCN2CCCCC2=O)cc1 [Compound 107, (E)-1-(2-((4-((2-(aminomethyl)-3-fluoroallyl)oxy)phenyl)sulfonyl)ethyl) piperidin-2-one] | > 30 µM | < 0.02 µM | < 10 µM
CS(=O)(=O)N1CCC(CS(=O)(=O)c2ccc(OC/C(=C/F)CN)cc2)CC1 [Compound 38, (E)-3-fluoro-2-((4-(((1-(methylsulfonyl)piperidin-4-yl)methyl)sulfonyl)phenoxy)methyl) prop-2-en-1-amine] | < 10 µM | < 0.02 µM | < 10 µM

Next, values leading:

IC50 [1] | IC50 [2] | IC50 [3] | SMILES
> 30 µM | < 0.02 µM | > 30 µM | CC(C)(C)C(=O)NC12CC(CS(=O)(=O)c3ccc(OC/C(=C/F)CN)cc3)(C1)C2 [Compound 77, (E)-N-(3-(((4-((2-(aminomethyl)-3-fluoroallyl)oxy)phenyl)sulfonyl)methyl)bicyclo[1.1.1]pentan-1-yl)pivalamide]
> 30 µM | < 0.02 µM | > 30 µM | CC(C)(C)C(=O)NC12CCC(CS(=O)(=O)c3ccc(OC/C(=C\F)CN)cc3)(CC1)CC2 [Compound 142, (Z)-N-(4-(((4-((2-(aminomethyl)-3-fluoroallyl)oxy)phenyl)sulfonyl)methyl)bicyclo[2.2.2]octan-1-yl)pivalamide]
> 30 µM | 0.02 to 0.1 µM | > 30 µM | CC(C)(C)NC(=O)C12CCC(CS(=O)(=O)c3ccc(OC/C(=C\F)CN)cc3)(CC1)CC2 [Compound 141, (Z)-4-(((4-((2-(aminomethyl)-3-fluoroallyl)oxy)phenyl)sulfonyl)methyl)-N-(tert-butyl)bicyclo[2.2.2]octane-1-carboxamide]
10 to 30 µM | 0.02 to 0.1 µM | 10 to 30 µM | N#CC1(CS(=O)(=O)c2ccc(OC/C(=C/F)CN)cc2F)CCOCC1 [compound 13, (E)-4-(((4-((2-(aminomethyl)-3-fluoroallyl)oxy)-2-fluorophenyl)sulfonyl)methyl) tetrahydro-2H-pyran-4-carbonitrile]
> 30 µM | 0.02 to 0.1 µM | 10 to 30 µM | NC/C(=C\F)COc1ccc(S(=O)(=O)CC23CCC(NC(=O)C4(C(F)(F)F)CC4)(CC2)CC3)cc1 [Compound 85, (E)-N-(4-(((4-((2-(aminomethyl)-3-fluoroallyl)oxy)phenyl)sulfonyl)methyl)bicyclo[2.2.2]octan-1-yl)-1-(trifluoromethyl)cyclopropane-1-carboxamide]
